Measurements taken from US20090270413A1, “DI-T-BUTYLPHENYL PIPERAZINES AS CALCIUM CHANNEL BLOCKERS” (priority 2008, published 2009).

Legend:
Format in all cases: cell-based
[1] = molecular target: T1, Human Cav2.2 channels (Homo sapiens, UniProt Q00975); assay: Block of Cav2.2 (N-type) channels expressed in HEK293 cells; conditions: for inhibition at 10 µM / inhibition at 30 µM: HEK293; for inhibition at 10 µM: read-out: Cav 2.2 % Inh @ 10 μM; for inhibition at 30 µM: read-out: Cav 2.2 % Inh @ 30 μM; for IC50: read-out: Cav 2.2 IC50
T1 construct: expressed in transfected cells
Source text: Human Cav2.2 channels were stably expressed in HEK293 cells along with alpha2-delta and beta subunits of voltage-gated calcium channels. An inwardly rectifying potassium channel (Kir2.3) was also expressed in these cells to allow more precise control of the cell membrane potential by extracellular potassium concentration. At low bath potassium concentration, the membrane potential is relatively negative, and is depolarized as the bath potassium concentration is raised. In this way, the bath potassium concentration can be used to regulate the voltage-dependent conformations of the channels. Compounds are incubated with cells in the presence of low (4 mM) potassium or elevated (12, 25 or 30 mM) potassium to determine the affinity for compound block of resting (closed) channels at 4 mM potassium or affinity for block of open and inactivated channels at 12, 25 or 30 mM potassium. After the incubation period, Cav2.2 channel opening is triggered by addition of higher concentration of potassium (70 mM final concentration) to further depolarize the cell. The degree of state-dependent block can be estimated from the inhibitory potency of compounds after incubation in different potassium concentrations.
Calcium influx through Cav2.2 channels is determined using a calcium sensitive fluorescent dye in combination with a fluorescent plate reader. Fluorescent changes were measured with either a VIPR (Aurora Instruments) or FLIPR (Molecular Devices) plate reader.
Protocol • 1. Seed cells in Poly-D-Lysine Coated 96 or 384-well plate and keep in a 37° C.-10% CO2 incubator overnight • 2. Remove media, wash cells with 0.2 mL (96-well plate) or 0.05 mL (384-well plate) Dulbecco's Phosphate Buffered Saline (D-PBS) with calcium & magnesium (Invitrogen; 14040) • 3. Add 0.1 mL (96-well plate) or 0.05 mL (384-well plate) of 4 μM fluor-4 (Molecular Probes; F-14202) and 0.02% Pluronic acid (Molecular Probes; P-3000) prepared in D-PBS with calcium & magnesium (Invitrogen; 14040) supplemented with 10 mM Glucose & 10 mM Hepes/NaOH; pH 7.4 • 4. Incubate in the dark at 25° C. for 60-70 min • 5. Remove dye, wash cells with 0.1 mL (96-well plate) or 0.06 mL (384-well plate) of 4, 12, 25, or 30 mM Potassium Pre-polarization Buffer (PPB) • 6. Add 0.1 mL (96-well plate) or 0.03 mL (384-well plate) of 4, 12, 25, 30 mM PPB with or without test compound • 7. Incubate in the dark at 25° C. for 30 min • 8. Read cell plate on VIPR instrument, Excitation=480 nm, Emission=535 nm • 9. With VIPR continuously reading, add 0.1 mL (96-well plate) or 0.03 mL (384-well plate) of Depolarization Buffer (DB), which is 2× the final assay concentration, to the cell plate.
Block of N-type calcium channels is evaluated utilizing the IonWorks HT 384 well automated patch clamp electrophysiology device. This instrument allows synchronous recording from 384 well (48 at a time). A single whole cell recording is made in each well. Whole cell recording is established by perfusion of the internal compartment with amphotericin B.
The voltage protocol is designed to detect use-dependent block. A 2 Hz train of depolarizations (twenty 25 ms steps to +20 mV). The experimental sequence consists of a control train (pre-compound), incubation of cells with compound for 5 minutes, followed by a second train (post-compound). Use dependent block by compounds is estimated by comparing fractional block of the first pulse in the train to block of the 20th pulse.
Parallel patch clamp electrophysiology is performed using IonWorks HT (Molecular Devices Corp) essentially as described by Kiss and colleagues (Kiss et al. 2003; Assay and Drug Development Technologies, 1:127-135). Briefly, a stable HEK 293 cell line (referred to as CBK) expressing the N-type calcium channel subunits (α1B, α2δ, β3a) and an inwardly rectifying potassium channel (Kir2.3) is used to record barium current through the N-type calcium channel. Cells are grown in T75 culture plates to 60-90% confluence before use. […]

[2] = molecular target: T2, Cav3.2 (T-type channel alpha-1H) (Homo sapiens, UniProt O95180); assay: T-type calcium channel voltage-clamp assay, Cav3.2; conditions: read-out: Cav 3.2 IC50
T2 construct: expressed in transfected cells; host or cells: HEK 293
T2 sequence (O95180 whole entry): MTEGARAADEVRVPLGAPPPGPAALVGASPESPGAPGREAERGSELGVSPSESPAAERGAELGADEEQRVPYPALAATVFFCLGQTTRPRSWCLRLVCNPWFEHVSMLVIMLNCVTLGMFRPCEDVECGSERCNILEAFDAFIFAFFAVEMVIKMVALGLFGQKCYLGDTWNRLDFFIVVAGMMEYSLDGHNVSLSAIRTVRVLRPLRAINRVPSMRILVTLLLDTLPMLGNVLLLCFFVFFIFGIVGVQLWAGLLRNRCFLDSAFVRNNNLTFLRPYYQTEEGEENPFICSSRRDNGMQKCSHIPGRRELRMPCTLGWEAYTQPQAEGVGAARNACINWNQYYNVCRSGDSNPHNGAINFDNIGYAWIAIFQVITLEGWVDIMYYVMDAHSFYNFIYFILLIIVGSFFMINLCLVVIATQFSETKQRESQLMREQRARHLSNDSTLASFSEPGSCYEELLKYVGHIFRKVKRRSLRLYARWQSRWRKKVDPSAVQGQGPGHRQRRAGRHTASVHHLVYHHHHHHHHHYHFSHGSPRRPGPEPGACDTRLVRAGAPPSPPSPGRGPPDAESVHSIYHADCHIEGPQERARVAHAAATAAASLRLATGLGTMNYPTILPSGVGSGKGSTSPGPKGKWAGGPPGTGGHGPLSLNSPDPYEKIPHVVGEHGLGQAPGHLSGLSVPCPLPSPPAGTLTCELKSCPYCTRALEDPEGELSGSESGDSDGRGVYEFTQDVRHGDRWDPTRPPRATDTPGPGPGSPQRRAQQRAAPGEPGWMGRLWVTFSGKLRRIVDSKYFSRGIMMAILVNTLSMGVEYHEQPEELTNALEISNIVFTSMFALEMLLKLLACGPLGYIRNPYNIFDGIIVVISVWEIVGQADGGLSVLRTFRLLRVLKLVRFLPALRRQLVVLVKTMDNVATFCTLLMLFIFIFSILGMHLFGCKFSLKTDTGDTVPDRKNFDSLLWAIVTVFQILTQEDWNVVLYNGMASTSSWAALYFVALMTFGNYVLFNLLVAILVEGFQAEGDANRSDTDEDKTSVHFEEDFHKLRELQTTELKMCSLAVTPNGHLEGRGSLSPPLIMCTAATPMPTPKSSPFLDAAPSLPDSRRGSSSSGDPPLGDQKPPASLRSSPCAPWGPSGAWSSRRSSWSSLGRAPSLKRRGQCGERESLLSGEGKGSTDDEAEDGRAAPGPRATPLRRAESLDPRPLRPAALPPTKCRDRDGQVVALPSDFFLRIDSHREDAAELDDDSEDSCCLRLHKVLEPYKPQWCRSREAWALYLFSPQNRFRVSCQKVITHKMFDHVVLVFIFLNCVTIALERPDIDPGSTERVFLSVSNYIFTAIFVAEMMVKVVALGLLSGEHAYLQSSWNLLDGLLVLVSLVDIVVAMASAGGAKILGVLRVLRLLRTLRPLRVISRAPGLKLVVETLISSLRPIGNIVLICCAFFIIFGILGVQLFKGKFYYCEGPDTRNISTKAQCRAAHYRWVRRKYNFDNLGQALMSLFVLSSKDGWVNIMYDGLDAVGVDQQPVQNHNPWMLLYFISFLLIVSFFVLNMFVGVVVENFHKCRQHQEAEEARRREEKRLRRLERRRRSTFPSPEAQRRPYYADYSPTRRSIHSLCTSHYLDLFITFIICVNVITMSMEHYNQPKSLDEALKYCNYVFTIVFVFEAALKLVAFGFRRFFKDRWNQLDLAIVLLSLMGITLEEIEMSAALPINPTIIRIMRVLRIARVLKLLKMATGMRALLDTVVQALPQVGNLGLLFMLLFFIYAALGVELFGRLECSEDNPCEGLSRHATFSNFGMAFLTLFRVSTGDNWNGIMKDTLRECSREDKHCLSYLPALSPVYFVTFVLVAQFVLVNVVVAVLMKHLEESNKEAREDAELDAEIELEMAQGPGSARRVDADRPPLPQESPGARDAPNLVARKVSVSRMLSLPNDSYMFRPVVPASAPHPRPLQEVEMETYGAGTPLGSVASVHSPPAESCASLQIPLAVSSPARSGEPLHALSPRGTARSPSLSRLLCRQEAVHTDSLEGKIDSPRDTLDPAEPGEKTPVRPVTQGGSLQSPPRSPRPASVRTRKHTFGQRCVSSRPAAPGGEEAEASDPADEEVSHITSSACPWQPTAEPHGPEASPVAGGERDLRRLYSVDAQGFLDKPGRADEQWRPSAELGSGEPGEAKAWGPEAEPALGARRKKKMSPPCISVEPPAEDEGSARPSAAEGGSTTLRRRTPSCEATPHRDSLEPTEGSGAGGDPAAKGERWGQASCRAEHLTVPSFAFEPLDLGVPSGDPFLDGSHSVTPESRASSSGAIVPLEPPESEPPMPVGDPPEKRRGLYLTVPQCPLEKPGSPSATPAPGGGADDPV
Experimental: (§1) The T-type calcium channel blocking activity of the compounds of this invention may be readily determined using the methodology well known in the art described by Xia, et al., Assay and Drug Development Tech., 1 (5), 637-645 (2003).
(§2) In a typical experiment ion channel function from HEK 293 cells expressing the T-type channel alpha-1G, H, or I (CaV 3.1, 3.2, 3.3) is recorded to determine the activity of compounds in blocking the calcium current mediated by the T-type channel alpha-1G, H, or I (CaV 3.1, 3.2, 3.3). In this T-type calcium (Ca^2+) antagonist voltage-clamp assay calcium currents are elicited from the resting state of the human alpha-1G, H, or I (CaV 3.1, 3.2, 3.3) calcium channel as follows. Sequence information for T-type (Low-voltage activated) calcium channels are fully disclosed in e.g., U.S. Pat. No. 5,618,720, U.S. Pat. No. 5,686,241, U.S. Pat. No. 5,710,250,U.S. Pat. No. 5,726,035, U.S. Pat. No. 5,792,846, U.S. Pat. No. 5,846,757, U.S. Pat. No. 5,851,824, U.S. Pat. No. 5,874,236, U.S. Pat. No. 5,876,958, U.S. Pat. No. 6,013,474, U.S. Pat. No. 6,057,114, U.S. Pat. No. 6,096,514, WO 99/28342, and J. Neuroscience, 19 (6):1912-1921 (1999). Cells expressing the t-type channels were grown in H3D5 growth media which is comprised DMEM, 6% bovine calf serum (HYCLONE), 30 micromolar Verapamil, 200 microgram/ml Hygromycin B, 1× Penicillin/Streptomycin. Glass pipettes are pulled to a tip diameter of 1-2 micrometer on a pipette puller. The pipettes are filled with the intracellular solution and a chloridized silver wire is inserted along its length, which is then connected to the headstage of the voltage-clamp amplifier. Trypsinization buffer was 0.05% Trypsin, 0.53 mM EDTA. The extracellular recording solution consists of (mM): 130 mM NaCl, 4 mM KCl, 1 mM MgCl2, 2 mM CaCl2, 10 mM HEPES, 30 Glucose, pH 7.4. The internal solution consists of (mM): 135 mM CsMeSO4, 1 MgCl2, 10 CsCl, 5 EGTA, 10 HEPES, pH 7.4, or 135 mM CsCl, 2 MgCl2, 3 MgATP, 2 Na2ATP, 1 Na2GTP, 5 EGTA, 10 HEPES, pH 7.4. Upon insertion of the pipette tip into the bath, the series resistance is noted (acceptable range is between 1-4 megaohm). The junction potential between the pipette and bath solutions is zeroed on the amplifier. The cell is then patched, the patch broken, and, after compensation for series resistance (>=80%), the voltage protocol is applied while recording the whole cell Ca2+ current response. Voltage protocols: (1) −80 mV holding potential every 20 seconds pulse to −20 mV for 40 msec duration; the effectiveness of the drug in inhibiting the current mediated by the channel is measured directly from measuring the reduction in peak current amplitude initiated by the voltage shift from −80 mV to −20 mV; (2). −100 mV holding potential every 15 seconds pulse to −20 mV for 40 msec duration; the effectiveness of the drug in inhibiting the current mediated by the channel is measured directly from measuring the reduction in peak current amplitude initiated by the shift in potential from −100 mV to […]. The difference in block at the two holding potentials was used to determine the effect of drug at differing levels of inactivation induced by the level of resting state potential of the cells. After obtaining control baseline calcium currents, extracellular solutions containing increasing concentrations of a test compound are washed on. Once steady state inhibition at a given compound concentration is reached, a higher concentration of compound is applied. % inhibition of the peak inward control Ca2+ current during the depolarizing step to −20 mV is plotted as a function of compound concentration.

[3] = molecular target: T3, Cav3.1 (T-type channel alpha-1G) (Homo sapiens, UniProt O43497); assay: T-type calcium channel voltage-clamp assay, Cav3.1; conditions: read-out: Cav 3.1 IC50
T3 construct: expressed in transfected cells; host or cells: HEK 293
T3 sequence (O43497 whole entry): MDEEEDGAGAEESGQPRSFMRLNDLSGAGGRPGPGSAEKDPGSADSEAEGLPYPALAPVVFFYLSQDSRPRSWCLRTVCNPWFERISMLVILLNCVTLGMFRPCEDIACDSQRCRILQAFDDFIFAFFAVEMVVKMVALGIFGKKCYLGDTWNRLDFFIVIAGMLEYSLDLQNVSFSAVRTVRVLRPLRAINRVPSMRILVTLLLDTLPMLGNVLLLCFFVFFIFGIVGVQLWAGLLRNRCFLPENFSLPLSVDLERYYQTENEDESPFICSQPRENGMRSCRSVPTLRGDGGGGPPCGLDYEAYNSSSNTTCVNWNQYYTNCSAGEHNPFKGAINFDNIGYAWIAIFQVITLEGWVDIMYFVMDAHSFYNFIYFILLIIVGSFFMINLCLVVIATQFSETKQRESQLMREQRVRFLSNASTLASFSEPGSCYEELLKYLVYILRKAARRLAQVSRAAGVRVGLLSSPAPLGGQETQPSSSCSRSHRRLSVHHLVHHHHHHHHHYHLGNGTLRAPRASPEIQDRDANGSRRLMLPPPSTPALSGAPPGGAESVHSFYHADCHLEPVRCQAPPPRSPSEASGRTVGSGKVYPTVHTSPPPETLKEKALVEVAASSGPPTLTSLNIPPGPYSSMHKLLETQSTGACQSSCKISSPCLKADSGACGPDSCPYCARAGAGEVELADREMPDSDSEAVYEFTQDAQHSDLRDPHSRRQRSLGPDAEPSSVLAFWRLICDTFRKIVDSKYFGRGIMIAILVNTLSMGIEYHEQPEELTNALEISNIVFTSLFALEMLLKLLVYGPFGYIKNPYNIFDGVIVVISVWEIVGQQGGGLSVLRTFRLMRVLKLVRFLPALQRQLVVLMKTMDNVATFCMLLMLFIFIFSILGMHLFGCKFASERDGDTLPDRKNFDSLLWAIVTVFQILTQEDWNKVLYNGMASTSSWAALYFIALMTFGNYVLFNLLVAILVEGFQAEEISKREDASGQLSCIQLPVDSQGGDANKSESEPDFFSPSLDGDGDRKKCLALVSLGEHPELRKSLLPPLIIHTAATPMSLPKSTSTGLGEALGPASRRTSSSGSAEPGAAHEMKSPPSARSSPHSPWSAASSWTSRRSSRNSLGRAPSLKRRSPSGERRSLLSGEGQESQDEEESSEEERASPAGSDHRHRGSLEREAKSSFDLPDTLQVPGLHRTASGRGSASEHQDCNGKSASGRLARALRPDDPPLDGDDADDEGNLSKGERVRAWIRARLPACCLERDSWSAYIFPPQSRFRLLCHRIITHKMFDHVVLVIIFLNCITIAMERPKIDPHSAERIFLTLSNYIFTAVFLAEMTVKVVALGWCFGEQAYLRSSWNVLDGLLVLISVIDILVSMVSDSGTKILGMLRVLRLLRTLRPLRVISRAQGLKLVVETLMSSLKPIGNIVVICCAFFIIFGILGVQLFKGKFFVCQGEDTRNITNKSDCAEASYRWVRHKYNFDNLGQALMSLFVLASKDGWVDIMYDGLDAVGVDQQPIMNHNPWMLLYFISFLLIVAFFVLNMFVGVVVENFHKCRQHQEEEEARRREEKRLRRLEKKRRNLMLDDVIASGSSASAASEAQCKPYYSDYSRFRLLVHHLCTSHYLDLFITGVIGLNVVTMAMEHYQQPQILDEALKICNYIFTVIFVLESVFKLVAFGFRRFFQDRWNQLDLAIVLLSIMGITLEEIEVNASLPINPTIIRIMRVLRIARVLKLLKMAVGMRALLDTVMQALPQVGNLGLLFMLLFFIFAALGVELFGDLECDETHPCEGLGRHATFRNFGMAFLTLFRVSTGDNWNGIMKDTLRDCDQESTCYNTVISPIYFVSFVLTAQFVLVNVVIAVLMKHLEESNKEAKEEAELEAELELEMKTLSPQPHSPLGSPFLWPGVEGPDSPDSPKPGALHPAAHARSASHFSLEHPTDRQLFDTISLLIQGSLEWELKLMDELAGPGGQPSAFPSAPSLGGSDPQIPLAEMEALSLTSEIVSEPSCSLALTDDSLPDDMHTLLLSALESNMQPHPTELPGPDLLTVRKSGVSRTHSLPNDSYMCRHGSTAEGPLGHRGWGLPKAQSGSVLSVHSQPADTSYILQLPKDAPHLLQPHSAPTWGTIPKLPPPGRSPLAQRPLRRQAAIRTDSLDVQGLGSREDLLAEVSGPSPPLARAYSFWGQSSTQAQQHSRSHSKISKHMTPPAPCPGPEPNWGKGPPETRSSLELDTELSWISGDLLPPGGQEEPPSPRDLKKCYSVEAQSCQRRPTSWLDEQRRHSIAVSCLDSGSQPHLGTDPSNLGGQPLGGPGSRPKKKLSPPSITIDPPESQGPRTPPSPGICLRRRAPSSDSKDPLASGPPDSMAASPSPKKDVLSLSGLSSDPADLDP
Experimental: as §1, §2

Compound | inhibition at 10 µM [1] | inhibition at 30 µM [1] | IC50 [1] | IC50 [2] | IC50 [3]
CC(C)(C)C(=O)Nc1ccncc1C(=O)N1CCN(c2cc(C(C)(C)C)cc(C(C)(C)C)c2)CC1 [Compound 7, N-(3-(4-(3,5-di-tert-butylphenyl)piperazine-1-carbonyl)pyridin-4-yl)pivalamide] | 97% | 96% | 0.3 µM | 0.66 µM | 0.47 µM
CC(C)(C)C(=O)Nc1ncccc1C(=O)N1CCN(c2cc(C(C)(C)C)cc(C(C)(C)C)c2)CC1 [Compound 8, N-(3-(4-(3,5-di-tert-butylphenyl)piperazine-1-carbonyl)pyridin-2-yl)pivalamide] | 94% | 95% | 0.65 µM | 0.71 µM | 0.55 µM
CC(C)(C)c1cc(N2CCN(C(=O)COc3ccc(F)cc3)CC2)cc(C(C)(C)C)c1 [Compound 13, 1-(4-(3,5-di-tert-butylphenyl)piperazin-1-yl)-2-(4-fluorophenoxy)ethanone] | 97% | 97% | 0.62 µM | 0.68 µM | 0.6 µM
Cc1ccc(OCC(=O)N2CCN(c3cc(C(C)(C)C)cc(C(C)(C)C)c3)CC2)c(C)c1 [Compound 14, 1-(4-(3,5-di-tert-butylphenyl)piperazin-1-yl)-2-(2,4-dimethylphenoxy)ethanone] | 86% | 93% | 1.37 µM | 1.11 µM | 1.28 µM
CC(C)(C)c1cc(N2CCN(C(=O)c3ccc(F)c(C(F)(F)F)c3)CC2)cc(C(C)(C)C)c1 [Compound 16, (4-(3,5-di-tert-butylphenyl)piperazin-1-yl)(4-fluoro-3-(trifluoromethyl)phenyl)methanone] | 96% | 90% | 1.46 µM | 0.69 µM | 0.68 µM
CC(C)(C)C(=O)Nc1cc(C(=O)N2CCN(c3cc(C(C)(C)C)cc(C(C)(C)C)c3)CC2)ccn1 [Compound 22, N-(4-(4-(3,5-di-tert-butylphenyl)piperazine-1-carbonyl)pyridin-2-yl)pivalamide] | 99% | 103% | 0.99 µM | 0.07 µM | 0.05 µM
CC(C)(C)c1cc(N2CCN(C(=O)c3cc(-c4ccccc4)nc(-c4ccccc4)c3)CC2)cc(C(C)(C)C)c1 [Compound 50, (4-(3,5-di-tert-butylphenyl)piperazin-1-yl)(2,6-diphenylpyridin-4-yl)methanone] | 20% | 26% |  |  | 

Continued, values first:

inhibition at 10 µM [1] | inhibition at 30 µM [1] | IC50 [1] | IC50 [2] | IC50 [3] | Compound
92% | 97% | 2.21 µM | 0.79 µM | 0.89 µM | CC(C)(C)c1cc(N2CCN(C(=O)c3ccc(F)cc3)CC2)cc(C(C)(C)C)c1 [Compound 4, (4-(3,5-di-tert-butylphenyl)piperazin-1-yl)(4-fluorophenyl)methanone]
96% | 104% | 0.37 µM | 1.31 µM | 1.07 µM | Cc1cc(C(=O)N2CCN(c3cc(C(C)(C)C)cc(C(C)(C)C)c3)CC2)n(C(C)(C)C)n1 [Compound 10, (1-tert-butyl-3-methyl-1H-pyrazol-5-yl)(4-(3,5-di-tert-butylphenyl)piperazin-1-yl)methanone]
79% | 89% |  |  |  | CC(C)(C)c1cc(N2CCN(C(=O)c3nsc(Cl)c3Cl)CC2)cc(C(C)(C)C)c1 [Compound 46, (4-(3,5-di-tert-butylphenyl)piperazin-1-yl)(4,5-dichloroisothiazol-3-yl)methanone]
98% | 100% |  |  |  | CCOc1ccc(C(=O)N2CCN(c3cc(C(C)(C)C)cc(C(C)(C)C)c3)CC2)o1 [Compound 51, (4-(3,5-di-tert-butylphenyl)piperazin-1-yl)(5-ethoxyfuran-2-yl)methanone]
75% | 88% |  |  |  | CCc1cc(C(=O)N2CCN(c3cc(C(C)(C)C)cc(C(C)(C)C)c3)CC2)sc1C [Compound 52, (4-(3,5-di-tert-butylphenyl)piperazin-1-yl)(4-ethyl-5-methylthiophen-2-yl)methanone]
